In one experiment the target is FOX-5 (Aeromonas allosaccharophila, UniProt Q9F4K3). The experiment can be described thus: IC50 of β-lactamase inhibitors, crude extract, FOX-5. In kind it is biochemical.
The target in the next experiment is YRC-1 (Yersinia ruckeri, UniProt Q20I87). Kind of experiment: IC50 of β-lactamase inhibitors, crude extract, YRC-1. In kind it is biochemical.
For a further experiment, the target named is Ear-1 (Klebsiella aerogenes, UniProt A0A0H3FRQ3). Kind of experiment: IC50 of β-lactamase inhibitors, crude extract, Ear-1. In kind it is biochemical.
Chain of Ear-1 (A0A0H3FRQ3 entry or part of it): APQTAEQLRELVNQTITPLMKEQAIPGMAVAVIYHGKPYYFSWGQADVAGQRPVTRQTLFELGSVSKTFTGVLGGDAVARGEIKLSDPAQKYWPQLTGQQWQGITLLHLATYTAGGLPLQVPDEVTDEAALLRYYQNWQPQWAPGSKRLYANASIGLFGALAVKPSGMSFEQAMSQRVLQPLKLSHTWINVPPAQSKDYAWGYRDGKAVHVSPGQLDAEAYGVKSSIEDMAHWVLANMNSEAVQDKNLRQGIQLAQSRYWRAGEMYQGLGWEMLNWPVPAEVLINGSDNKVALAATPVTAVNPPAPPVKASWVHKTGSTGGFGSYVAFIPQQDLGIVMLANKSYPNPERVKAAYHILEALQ
The target in the next experiment is ACT-7 (Enterobacter asburiae, UniProt B6V6L3). Kind of experiment: biochemical.
Chain of ACT-7 (B6V6L3 entry or part of it): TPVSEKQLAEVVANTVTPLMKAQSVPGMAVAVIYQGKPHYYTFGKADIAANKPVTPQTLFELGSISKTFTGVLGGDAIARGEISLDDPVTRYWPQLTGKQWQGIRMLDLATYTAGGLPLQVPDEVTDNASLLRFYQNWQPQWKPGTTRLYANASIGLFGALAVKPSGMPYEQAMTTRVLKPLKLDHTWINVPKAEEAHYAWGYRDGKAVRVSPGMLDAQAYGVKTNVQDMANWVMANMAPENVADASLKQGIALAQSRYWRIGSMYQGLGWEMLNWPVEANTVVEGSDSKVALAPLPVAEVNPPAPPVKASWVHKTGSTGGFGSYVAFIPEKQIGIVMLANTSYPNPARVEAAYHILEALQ
A further experiment concerns the target DHA-1 (Morganella morganii, UniProt P94958). Kind of experiment: IC50 of β-lactamase inhibitors, crude extract, DHA-1. In kind it is biochemical.
A further experiment has as its target SRT-1 (Serratia marcescens, UniProt P18539). The experiment can be described thus: IC50 of β-lactamase inhibitors, crude extract, SRT-1. In kind it is biochemical. To be noted: crude extract of E. coli TOP10 recombinant strain, mean of triplicate.
In another experiment the target is LAT-1 (Citrobacter portucalensis, UniProt Q48443). Kind of experiment: biochemical.
Chain of LAT-1 (Q48443 entry or part of it): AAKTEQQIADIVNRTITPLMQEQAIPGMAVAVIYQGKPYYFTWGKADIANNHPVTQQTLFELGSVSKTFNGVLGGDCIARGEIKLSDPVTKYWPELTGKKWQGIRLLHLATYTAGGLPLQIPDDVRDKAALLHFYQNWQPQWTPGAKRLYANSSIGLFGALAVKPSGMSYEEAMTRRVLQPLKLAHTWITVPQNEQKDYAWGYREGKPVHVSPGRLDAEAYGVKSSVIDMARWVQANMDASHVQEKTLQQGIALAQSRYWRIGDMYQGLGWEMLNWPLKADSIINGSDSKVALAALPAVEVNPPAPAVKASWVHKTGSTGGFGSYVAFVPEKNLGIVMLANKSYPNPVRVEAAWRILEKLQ
In another experiment the target is T1, CMY-2 (Klebsiella pneumoniae, UniProt Q48434).
T1 construct: made in house; host or cells: E. coli TOP10, plasmid pUCp24
T1 sequence (Q48434 21-381): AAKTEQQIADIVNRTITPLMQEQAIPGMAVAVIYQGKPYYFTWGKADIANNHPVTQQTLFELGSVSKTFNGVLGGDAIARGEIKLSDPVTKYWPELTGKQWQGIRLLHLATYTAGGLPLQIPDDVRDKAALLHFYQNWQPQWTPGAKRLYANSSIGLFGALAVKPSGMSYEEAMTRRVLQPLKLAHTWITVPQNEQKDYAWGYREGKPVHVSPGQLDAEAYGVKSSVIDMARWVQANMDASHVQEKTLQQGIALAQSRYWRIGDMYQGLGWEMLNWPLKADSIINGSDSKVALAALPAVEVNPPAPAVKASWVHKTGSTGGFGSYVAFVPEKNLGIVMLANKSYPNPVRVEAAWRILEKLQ
Kind of experiment: biochemical. More on the design: species or system Citrobacter spp.

For a further experiment, the target named is MIR-17. Kind of experiment: IC50 of β-lactamase inhibitors, crude extract, MIR-17. In kind it is biochemical, Enterobacter roggenkampii. To be noted: crude extract of E. coli TOP10 recombinant strain, mean of triplicate.
A further experiment deals with T2, CMY-42 (Klebsiella pneumoniae, UniProt Q48434, V231S).
T2 construct: made in house; host or cells: E. coli TOP10, plasmid pUCp24
T2 sequence (Q48434 21-381 V231S): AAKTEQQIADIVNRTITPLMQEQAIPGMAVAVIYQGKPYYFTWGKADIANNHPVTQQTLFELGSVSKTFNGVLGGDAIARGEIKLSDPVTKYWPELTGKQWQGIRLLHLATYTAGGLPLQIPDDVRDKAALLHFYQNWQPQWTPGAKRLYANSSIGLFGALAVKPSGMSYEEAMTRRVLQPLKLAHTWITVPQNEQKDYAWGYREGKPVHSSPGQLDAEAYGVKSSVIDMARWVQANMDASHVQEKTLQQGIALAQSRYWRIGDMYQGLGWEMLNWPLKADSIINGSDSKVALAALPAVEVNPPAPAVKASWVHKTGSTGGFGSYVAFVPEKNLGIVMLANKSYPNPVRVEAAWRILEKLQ
Kind of experiment: biochemical. More on the design: species or system Citrobacter spp.

In another experiment the target is MOX-2 (Aeromonas caviae, UniProt Q9L3G2). Kind of experiment: IC50 of β-lactamase inhibitors, crude extract, MOX-2. In kind it is biochemical.
Chain of MOX-2 (Q9L3G2 entry or part of it): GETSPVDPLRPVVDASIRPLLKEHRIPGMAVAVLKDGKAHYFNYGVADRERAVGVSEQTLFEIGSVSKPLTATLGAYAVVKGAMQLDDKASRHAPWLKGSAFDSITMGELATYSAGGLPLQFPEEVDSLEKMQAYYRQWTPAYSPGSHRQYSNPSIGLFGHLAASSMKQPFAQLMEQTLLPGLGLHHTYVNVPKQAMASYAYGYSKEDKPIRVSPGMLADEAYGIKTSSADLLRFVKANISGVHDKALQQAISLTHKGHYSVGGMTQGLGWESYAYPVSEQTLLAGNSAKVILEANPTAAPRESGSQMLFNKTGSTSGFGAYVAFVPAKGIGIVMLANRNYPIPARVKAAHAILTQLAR
Another experiment addresses ACC-1 (Hafnia alvei, UniProt Q9XB24). The experiment can be described thus: IC50 of β-lactamase inhibitors, crude extract, ACC-1. In kind it is biochemical.
For the next experiment, the target named is ADC-50 (Acinetobacter baumannii, UniProt Q6DRA1). The experiment can be described thus: IC50 of β-lactamase inhibitors, crude extract, ADC-50. In kind it is biochemical, A. baumannii. To be noted: for IC50: ADC-50, crude extract of E. coli TOP10 recombinant strain, mean of triplicate; for inhibition of ADC-50 (in words): ADC-50 of A. baumannii.
A further experiment addresses T3, PDC-5 (Pseudomonas aeruginosa, UniProt P24735, R79Q/T105A).
T3 construct: made in house; host or cells: E. coli TOP10, plasmid pUCp24
Kind of experiment: biochemical. Also on record: species or system P. aeruginosa.

Another experiment has as its target T4, PDC-1 (Pseudomonas aeruginosa, UniProt P24735).
T4 construct: made in house; host or cells: E. coli TOP10, plasmid pUCp24
The experiment can be described thus: biochemical. Also on record: species or system P. aeruginosa.

The target in the next experiment is PDC-382 (Pseudomonas aeruginosa, UniProt P24735, T96I). The experiment can be described thus: biochemical. Also on record: species or system P. aeruginosa.
Chain of PDC-382 (P24735 27-397 T96I): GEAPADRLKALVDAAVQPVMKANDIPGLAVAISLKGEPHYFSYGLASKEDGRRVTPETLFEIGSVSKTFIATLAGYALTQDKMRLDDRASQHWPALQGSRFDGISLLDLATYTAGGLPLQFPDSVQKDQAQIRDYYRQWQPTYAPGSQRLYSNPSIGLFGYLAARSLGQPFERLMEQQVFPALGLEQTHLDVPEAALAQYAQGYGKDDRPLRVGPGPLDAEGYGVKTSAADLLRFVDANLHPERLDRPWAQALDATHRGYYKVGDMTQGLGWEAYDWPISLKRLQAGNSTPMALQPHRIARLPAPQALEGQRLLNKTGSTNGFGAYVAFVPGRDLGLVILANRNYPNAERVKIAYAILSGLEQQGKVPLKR
In the next experiment the target is ACT-17 (Enterobacter asburiae, UniProt P05364). In kind it is biochemical. The following applies: crude extract of E. coli TOP10 recombinant strain, mean of triplicate.
Chain of ACT-17 (P05364 21-381): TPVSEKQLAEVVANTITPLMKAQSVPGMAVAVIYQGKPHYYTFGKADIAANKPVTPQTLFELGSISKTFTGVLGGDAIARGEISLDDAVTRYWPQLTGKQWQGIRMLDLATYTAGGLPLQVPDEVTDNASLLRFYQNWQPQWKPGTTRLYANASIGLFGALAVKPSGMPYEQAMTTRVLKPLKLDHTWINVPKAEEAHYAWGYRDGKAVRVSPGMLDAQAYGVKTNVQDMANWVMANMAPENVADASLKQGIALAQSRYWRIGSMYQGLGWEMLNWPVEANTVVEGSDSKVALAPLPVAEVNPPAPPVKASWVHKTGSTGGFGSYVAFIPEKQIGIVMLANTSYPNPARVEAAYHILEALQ
Another experiment relates to E. coli TOP10. The experiment can be described thus: microbe, parasite or virus in culture. In kind it is cell-based. The following applies: Escherichia coli, TOP10; E. coli TOP 10; β-lactamase inhibitor alone; read-out: MIC values of inhibitor alone. How it is done: In order to assess the relative inhibitory activities of those BLI against AmpC β-lactamases, the corresponding blaampC genes without the original promoter sequences were amplified by PCR with specific primers, and corresponding amplicons were cloned into plasmid pUCp24, as described previously ([12], [13]). […] Cultures of E. coli TOP10 harboring recombinant plasmids and therefore producing the different AmpC tested were grown overnight at 37°C in Luria-Bertani agar medium containing amoxicillin (AMX) (50 µg/mL). The activity of the following acquired class C β-lactamases could therefore be evaluated, namely, ACC-1 (originally from Hafnia spp.), FOX-5 (from Aeromonas allosaccharophila), CMY-2 and CMY-42 (from Citrobacter spp.), DHA-1 (from Morganella morganii), ACT-7 and ACT-17 (from Enterobacter asburiae), MIR-17 (from Enterobacter roggenkampii), MOX-2 (from Aeromonas caviae), and LAT-1 (from Citrobacter portucalensis) ([5]). […] Altogether, these enzymes were chosen as representatives of clinically relevant class C β-lactamases being sources of intrinsic or acquired resistance to broad-spectrum β-lactams among most of the commonly identified Gram-negative bacteria in clinical practice.
MICs were determined in triplicate by broth microdilution (BMD) for CAZ and AMX, as well as their combinations with each β-lactamase inhibitor. CAZ, AMX, and CLA were purchased from Sigma-Aldrich (St. Louis, MO, USA). All others inhibitors (TAZ HY-W009168, AVI HY-14879, REL HY-16752, VAB HY-19930, NAC HY-109008, ZID HY-120859, TAN HY-109124, XER HY-136072, DUR HY-117974, EMT HY-103095) were purchased from MedChem Express (Luzern, Switzerland). The concentration of each β-lactamase inhibitor was chosen as the concentration used in the respective BL/BLI combination under development or commercially available, according to EUCAST or CLSI ([18], [19]). […] BMD assays were performed in cation-adjusted Mueller-Hinton (MH) broth (Bio-Rad, Marnes-la-Coquette, France) for all antibiotics or antibiotic combinations listed above, according to the EUCAST guidelines ([20]).

Like-named read-outs stand apart in the source and are kept apart here.

Chain of YRC-1 (Q20I87 entry or part of it): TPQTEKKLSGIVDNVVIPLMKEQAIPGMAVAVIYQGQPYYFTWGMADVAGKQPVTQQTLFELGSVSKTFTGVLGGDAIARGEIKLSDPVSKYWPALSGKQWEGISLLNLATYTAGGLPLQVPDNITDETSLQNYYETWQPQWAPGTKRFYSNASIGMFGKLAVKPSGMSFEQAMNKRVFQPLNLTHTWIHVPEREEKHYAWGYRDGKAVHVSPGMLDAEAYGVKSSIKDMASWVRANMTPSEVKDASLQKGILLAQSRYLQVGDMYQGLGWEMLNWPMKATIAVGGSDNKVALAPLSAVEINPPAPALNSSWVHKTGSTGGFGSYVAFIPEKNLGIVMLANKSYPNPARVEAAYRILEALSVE
T3 sequence (P24735 27-397 R79Q/T105A): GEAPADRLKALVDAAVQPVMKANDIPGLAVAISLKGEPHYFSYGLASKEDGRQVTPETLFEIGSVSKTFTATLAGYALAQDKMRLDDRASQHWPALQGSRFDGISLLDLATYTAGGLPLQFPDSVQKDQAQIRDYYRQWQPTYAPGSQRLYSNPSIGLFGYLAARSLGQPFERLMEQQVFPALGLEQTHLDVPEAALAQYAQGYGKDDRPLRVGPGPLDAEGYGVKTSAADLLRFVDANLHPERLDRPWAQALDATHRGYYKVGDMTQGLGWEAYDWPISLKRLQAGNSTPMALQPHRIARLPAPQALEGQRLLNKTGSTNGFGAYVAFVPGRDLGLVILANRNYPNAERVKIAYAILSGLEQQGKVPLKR
T4 sequence (P24735 27-397): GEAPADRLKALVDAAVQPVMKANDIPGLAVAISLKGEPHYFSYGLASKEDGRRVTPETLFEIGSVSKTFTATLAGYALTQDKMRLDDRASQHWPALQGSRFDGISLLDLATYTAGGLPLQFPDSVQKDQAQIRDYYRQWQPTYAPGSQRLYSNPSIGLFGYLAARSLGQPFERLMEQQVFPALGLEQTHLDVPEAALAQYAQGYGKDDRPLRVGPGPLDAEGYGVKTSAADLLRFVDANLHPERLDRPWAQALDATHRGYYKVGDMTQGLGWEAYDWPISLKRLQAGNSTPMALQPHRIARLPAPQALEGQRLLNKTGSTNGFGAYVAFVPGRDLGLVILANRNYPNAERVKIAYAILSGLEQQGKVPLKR
Chain of ACC-1 (Q9XB24 entry or part of it): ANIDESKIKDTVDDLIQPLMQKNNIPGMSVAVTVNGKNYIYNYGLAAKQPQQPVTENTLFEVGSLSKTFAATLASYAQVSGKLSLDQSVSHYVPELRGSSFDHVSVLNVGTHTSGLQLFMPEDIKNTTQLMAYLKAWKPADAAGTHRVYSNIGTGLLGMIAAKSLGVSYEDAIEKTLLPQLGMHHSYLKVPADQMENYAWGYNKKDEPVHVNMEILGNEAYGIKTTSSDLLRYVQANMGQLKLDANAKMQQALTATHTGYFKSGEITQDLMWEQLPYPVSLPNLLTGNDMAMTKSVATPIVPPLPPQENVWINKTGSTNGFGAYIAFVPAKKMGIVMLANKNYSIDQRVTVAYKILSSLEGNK
Chain of SRT-1 (P18539 22-376): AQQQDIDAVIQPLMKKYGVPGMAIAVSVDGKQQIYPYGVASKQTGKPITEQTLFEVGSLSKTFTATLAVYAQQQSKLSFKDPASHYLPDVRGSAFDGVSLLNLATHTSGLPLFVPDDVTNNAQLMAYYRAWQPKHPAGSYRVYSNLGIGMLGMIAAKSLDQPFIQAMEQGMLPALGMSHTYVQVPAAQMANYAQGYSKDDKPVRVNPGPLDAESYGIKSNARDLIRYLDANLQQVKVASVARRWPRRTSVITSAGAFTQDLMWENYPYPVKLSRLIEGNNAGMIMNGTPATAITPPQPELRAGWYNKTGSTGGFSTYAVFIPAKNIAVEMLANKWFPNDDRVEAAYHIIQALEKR

What is called IC50 is the concentration that inhibits the measured activity by half. Consider `C[C@]1(Cn2ccnn2)[C@H](C(=O)O)N2C(=O)C[C@H]2S1(=O)=O` [Tazobactam, tazobactam], for which the IC50 at FOX-5 is 23 µM; against YRC-1 it was over 100 µM; at Ear-1 it was 72 µM; on ACT-7, 23 µM; on DHA-1, 1.3 µM; on SRT-1, 48 µM. For the same molecule, the IC50 at LAT-1 is 7.3 µM; at CMY-2, 20 µM; on MIR-17, 83 µM; against CMY-42, 24 µM; on MOX-2, over 100 µM; at ACC-1, 2.1 µM. Besides, the 50% inhibitory concentration (IC50) on ADC-50 was over 100 µM.

Consider `O=C(O)[C@H]1/C(=C/CO)O[C@@H]2CC(=O)N21` [Clavulanic acid, clavulanic acid], for which the IC50 at FOX-5, at YRC-1, on Ear-1, against ACT-7, on DHA-1 and on SRT-1 was over 100 µM throughout. The IC50 at PDC-5, against LAT-1, at CMY-2, at MIR-17, against CMY-42 and on PDC-1 was over 100 µM throughout. Besides, the IC50 against MOX-2, against ACC-1, at ADC-50 and at PDC-382 was over 100 µM each time.

For `O=C(O)C[C@@H]1CC[C@H](NC(=O)Cc2cccs2)B(O)O1` [Vaborbactam, vaborbactam], the IC50 at FOX-5 was found to be 17 µM; against YRC-1, 2 µM; at Ear-1, 0.84 µM; at ACT-17, 2.6 µM; against ACT-7, 3.6 µM; at DHA-1, 3.1 µM. The half-maximal inhibitory concentration (IC50) at SRT-1 worked out at 6.9 µM; against PDC-5, 37 µM; against LAT-1 it was 1.2 µM; on CMY-2, 5.3 µM; at MIR-17 it was 1.1 µM; at CMY-42, 13 µM. For the same molecule, the 50% inhibitory concentration (IC50) on PDC-1 was 11 µM; against MOX-2, 1.9 µM; against ACC-1, 3.6 µM; at ADC-50, over 100 µM; against PDC-382 it was 54 µM. For the same molecule, the “inhibition of ADC-50 (in words)” value on ADC-50 is given as “not significantly inhibited”.

Turning to `O=C(NC1CCNCC1)[C@@H]1CC[C@@H]2CN1C(=O)N2OS(=O)(=O)O` [Relebactam, relebactam], the IC50 against FOX-5 is 2 µM; against YRC-1 it was 1.9 µM; against Ear-1, 0.89 µM; at ACT-17, 0.33 µM; against ACT-7, 0.71 µM; at DHA-1, 0.85 µM. Further, the concentration for half-maximal inhibition (IC50) on SRT-1 came out at 37 µM; at LAT-1, 0.23 µM; on CMY-2 it was 0.59 µM; on MIR-17, 1.3 µM; against CMY-42, 1.1 µM; against MOX-2, 2.4 µM. For the same molecule, the IC50 on ACC-1 was 0.58 µM; at ADC-50 it was 13 µM; on ADC-50 (listed as REL) it was over 13 µM.

As for `O=C(NNC(=O)[C@@H]1CC[C@@H]2CN1C(=O)N2OS(=O)(=O)O)[C@@H]1CCCNC1` [Zidebactam, zidebactam], the half-maximal inhibitory concentration (IC50) came out at 0.99 µM on FOX-5; 0.09 µM on YRC-1; 0.12 µM against Ear-1; 0.14 µM on ACT-17; 0.12 µM against ACT-7; 0.06 µM on DHA-1. Further, the IC50 on SRT-1 came out at 37 µM; at LAT-1, 0.005 µM; at CMY-2, 0.12 µM; on MIR-17, 0.11 µM; against CMY-42, 0.17 µM; at MOX-2, 2.7 µM. In addition, the IC50 against ACC-1 was 0.09 µM; on ADC-50 it was 5.5 µM; on ADC-50 (listed as ZID), 5 µM. Moreover, in the experiment with E. coli TOP10, the MIC stood at 0.125 µg/mL.

In the case of `Cn1cc[n+](C[C@@]2(C)[C@H](C(=O)[O-])N3C(=O)C[C@H]3S2(=O)=O)n1` [Enmetazobactam, enmetazobactam], the IC50 is over 100 µM at FOX-5 (FOX-5, crude extract of E. coli TOP10 recombinant strain, mean of triplicate, read-out: IC50); over 100 µM at YRC-1 (YRC-1, crude extract of E. coli TOP10 recombinant strain, mean of triplicate, read-out: IC50); 91 µM on Ear-1 (Ear-1, crude extract of E. coli TOP10 recombinant strain, mean of triplicate, read-out: IC50); 62 µM on ACT-17 (read-out: IC50); 43 µM at ACT-7 (ACT-7, crude extract of E. coli TOP10 recombinant strain, mean of triplicate, read-out: IC50); 26 µM on DHA-1 (DHA-1, crude extract of E. coli TOP10 recombinant strain, mean of triplicate, read-out: IC50). Also, the IC50 on SRT-1 (read-out: IC50) was over 100 µM; at PDC-5 (PDC-5, crude extract of E. coli TOP10 recombinant strain, mean of triplicate, read-out: IC50), over 100 µM; at LAT-1 (LAT-1, crude extract of E. coli TOP10 recombinant strain, mean of triplicate, read-out: IC50) it was 97 µM; on CMY-2 (CMY-2, crude extract of E. coli TOP10 recombinant strain, mean of triplicate, read-out: IC50) it was 40 µM; at MIR-17, over 100 µM; at CMY-42 (CMY-42, crude extract of E. coli TOP10 recombinant strain, mean of triplicate, read-out: IC50), 64 µM. The IC50 on PDC-1 (PDC-1, crude extract of E. coli TOP10 recombinant strain, mean of triplicate, read-out: IC50) was over 100 µM; at MOX-2 (MOX-2, crude extract of E. coli TOP10 recombinant strain, mean of triplicate, read-out: IC50), over 100 µM; at ACC-1 (ACC-1, crude extract of E. coli TOP10 recombinant strain, mean of triplicate, read-out: IC50) it was 39 µM; at ADC-50 (read-out: IC50) it was over 100 µM; at PDC-382 (PDC-382, crude extract of E. coli TOP10 recombinant strain, mean of triplicate, read-out: IC50) it was over 100 µM. Also, the “inhibition of ADC-50 (in words)” value on ADC-50 was “not significantly inhibited”.

In the case of `NC(=O)[C@@H]1CC[C@@H]2CN1C(=O)N2OS(=O)(=O)O` [Avibactam, avibactam], the IC50 at FOX-5 turned out to be 1 µM; at YRC-1, 2.1 µM; at Ear-1, 0.88 µM; at ACT-17, 0.9 µM; on ACT-7, 0.8 µM; at DHA-1 it was 0.11 µM. In addition, the IC50 is 6.7 µM at SRT-1; 0.4 µM at LAT-1; 0.61 µM at CMY-2; 1 µM on MIR-17; 0.65 µM at CMY-42; 5.6 µM at MOX-2. Besides, the IC50 at ACC-1 is 0.25 µM; at ADC-50, 61 µM; at ADC-50 (listed as AVI) it was over 13 µM.

Source of the values: paper PMC11539244, “Relative inhibitory activities of newly developed diazabicyclooctanes, boronic acid derivatives, and penicillin-based sulfone β-lactamase inhibitors against broad-spectrum AmpC β-lactamases” (Antimicrobial Agents and Chemotherapy, 2024).
